CC50 and IC50 data for 32 compounds are collected here from patent publication US11603349B2, “Anti-fibrotic compounds” (Certa Therapeutics Pty Ltd, priority 2017, dated 2023).

The nature of series [1]: MTS tetrazolium reduction cell viability assay. The following applies: rat, rat mesangial cells (1097/IRMC cells), TGF-β1 stimulated, CC50 (μM), vs 1% DMSO vehicle. Background: Formazan colour is commonly taken as a measure of viable cells.
For series [2], the system named is TGF-β induced [14C]-proline incorporation in rat mesangial cells. Briefly: [14C]-proline incorporation assay (collagen biosynthesis). Format: cell-based. The following applies: Rattus norvegicus, Mesangial cell, 44 h, inhibition of TGF-β1 (1 ng/ml) induced [14C]-proline incorporation, IRMC cells.

In series [1], `C#CCOc1ccc(/C=C/C(=O)Nc2ccccc2C(=O)NS(C)(=O)=O)cc1OC` [Example 27, (E)-2-(3-(3-methoxy-4-(prop-2-yn-1-yloxy)phenyl)acrylamido)-N-(methylsulfonyl)benzamide] gave a CC50 at 48 h of 120 µM. This compound also showed an IC50 in series [2] of 21.4 µM.

As for `C#CCOc1ccc(/C=C/C(=O)Nc2ccccc2-c2nc(C)no2)cc1OC` [Example 28, (E)-3-(3-methoxy-4-(prop-2-yn-1-yloxy)phenyl)-N-(2-(3-methyl-1,2,4-oxadiazol-5-yl)phenyl)acryl-amide], the half-maximal cytotoxic concentration (CC50) at 48 h in series [1] worked out at 146 µM. The IC50 in series [2] was 11.6 µM.

In series [1], `C#CCOc1ccc(/C=C/C(=O)Nc2ccccc2-c2nnc(C)o2)cc1OC` [Example 29, (E)-3-(3-methoxy-4-(prop-2-yn-1-yloxy)phenyl)-N-(2-(5-methyl-1,3,4-oxadiazol-2-yl)phenyl)-acrylamide] had a CC50 at 48 h of over 300 µM. In series [2], this compound displayed a 50% inhibitory concentration (IC50) of 25.6 µM.

In the case of `C#CCOc1ccc(/C=C/C(=O)Nc2ccccc2C(=O)NCCN(C)C)cc1OC` [Example 30, (E)-N-(2-(dimethylamino)ethyl)-2-(3-(3-methoxy-4-(prop-2-yn 1 yloxy)phenyl)acrylamido) benzamide], the CC50 at 48 h in series [1] was 37.2 µM. The compound further had an IC50 in series [2] of 11.8 µM.

Compound `C#CCOc1ccc(/C=C/C(=O)Nc2ccccc2C(=O)Nc2nn[nH]n2)cc1OC` [Example 31, (E)-2-(3-(3-methoxy-4-(prop-2-yn-1-yloxy)phenyl)acrylamido)-N-(2H-tetrazol-5-yl)benzamide] showed a CC50 at 48 h in series [1] of over 300 µM. Also, in series [2], the 50% inhibitory concentration (IC50) amounted to 13.9 µM.

`C#CCOc1ccc(/C=C/C(=O)Nc2ccccc2C(=O)NCCCN(C)C)cc1OC` [Example 32, (E)-N-(3-(dimethylamino)propyl)-2-(3-(3-methoxy-4-(prop-2-yn-1-yloxy)phenyl)acrylamido) benzamide]: half-maximal cytotoxicity in series [1] (CC50 at 48 h) was put at 32 µM. In series [2], this compound showed an IC50 of 27.4 µM.

`C#CCOc1ccc(/C=C/C(=O)Nc2ccccc2C(=O)NCCOC)cc1OC` [Example 33, (E)-2-(3-(3-methoxy-4-(prop-2-yn-1-yloxy)phenyl)acrylamido)-N-(2-methoxyethyl)benzamide]: the CC50 at 48 h in series [1] is 199 µM. Besides, half-maximal inhibition in series [2] (IC50) was put at 29.2 µM.

Compound `C#CCOc1ccc(/C=C/C(=O)Nc2ccccc2C(=O)NCCN2CCN(C)CC2)cc1OC` [Example 34, (E)-2-(3-(3-methoxy-4-(prop-2-yn-1-yloxy)phenyl)acrylamido)-N-(2-(4-methylpiperazin-1-yl)ethyl)benzamide] displayed a CC50 at 48 h in series [1] of 37.3 µM. The midpoint of inhibition in series [2], the IC50, lay at 28.4 µM.

Consider `C#CCOc1ccc(/C=C/C(=O)Nc2ccccc2C(=O)NCCN2CCOCC2)cc1OC` [Example 35, (E)-2-(3-(3-methoxy-4-(prop-2-yn-1-yloxy)phenyl)acrylamido)-N-(2-morpholinoethyl)benzamide], for which, in series [1], the CC50 at 48 h came out at 301 µM. Moreover, half-maximal inhibition in series [2] (IC50) was put at 37.4 µM.

In series [1], `C#CCOc1ccc(/C=C/C(=O)Nc2ccccc2C(=O)NC2CCN(C)CC2)cc1OC` [Example 36, (E)-2-(3-(3-methoxy-4-(prop-2-yn-1-yloxy)phenyl)acrylamido)-N-(1-methylpiperidin-4-yl)benzamide] had a cytotoxic concentration (CC50) at 48 h of 15.2 µM. Moreover, inhibition in series [2] was half-maximal at 15.8 µM (IC50).

In the case of `C#CCOc1ccc(/C=C/C(=O)Nc2ccccc2C(=O)NCC2CCN(C)CC2)cc1OC` [Example 37, (E)-2-(3-(3-methoxy-4-(prop-2-yn-1-yloxy)phenyl)acrylamido)-N-((1-methylpiperidin-4-yl)methyl)benzamide], the CC50 at 48 h in series [1] was 29.2 µM. Also, in series [2], the IC50 is 18 µM.

`C#CCOc1ccc(/C=C/C(=O)Nc2ccccc2C(=O)NC2COC2)cc1OC` [Example 38, (E)-2-(3-(3-methoxy-4-(prop-2-yn-1-yloxy)phenyl)acrylamido)-N-(oxetan-3-yl)benzamide] showed a CC50 at 48 h in series [1] of 236 µM. Also, in series [2], it took 38.2 µM to reach half-maximal inhibition (IC50).

Compound `C#CCOc1ccc(/C=C/C(=O)Nc2ccccc2C(=O)NCC2CCOC2)cc1OC` (stereo not shown) [Example 39, (E)-2-(3-(3-methoxy-4-(prop-2-yn-1-yloxy)phenyl)acrylamido)-N-((tetrahydrofuran-3-yl)methyl)benzamide] displayed a CC50 at 48 h in series [1] of 85.8 µM. This compound registered an IC50 in series [2] of 48.3 µM.

`C#CCOc1ccc(/C=C/C(=O)Nc2ccccc2C(=O)NCc2cncn2C)cc1OC` [Example 40, (E)-2-(3-(3-methoxy-4-(prop-2-yn-1-yloxy)phenyl)acrylamido)-N-((1-methyl-1H-imidazol-5-yl)methyl)benzamide] displayed a CC50 at 48 h in series [1] of over 300 µM. The compound also returned an IC50 in series [2] of 6.76 µM.

`C#CCOc1ccc(/C=C/C(=O)Nc2ccccc2C(=O)NCc2ccccn2)cc1OC` [Example 41, (E)-2-(3-(3-methoxy-4-(prop-2-yn-1-yloxy)phenyl)acrylamido)-N-(pyridin-2-ylmethyl)benzamide] came in with a half-maximal cytotoxic concentration (CC50) at 48 h in series [1] of 341 µM. The same compound gave an IC50 in series [2] of 24.8 µM.

With `C#CCOc1ccc(/C=C/C(=O)Nc2ccccc2C(=O)NCCc2ccccn2)cc1OC` [Example 42, (E)-2-(3-(3-methoxy-4-(prop-2-yn-1-yloxy)phenyl)acrylamido)-N-(2-(pyridin-2-yl)ethyl)benzamide], the CC50 at 48 h in series [1] amounted to 52 µM. Moreover, in series [2], the 50% inhibitory concentration (IC50) was 17 µM.

For `C#CCOc1ccc(/C=C/C(=O)Nc2ccccc2C(=O)NCc2cccnc2)cc1OC` [Example 43, (E)-2-(3-(3-methoxy-4-(prop-2-yn-1-yloxy)phenyl)acrylamido)-N-(pyridin-3-ylmethyl)benzamide], in series [1], the cytotoxic concentration (CC50) at 48 h is over 300 µM. In series [2], this compound came in with an IC50 of 44.6 µM.

The compound `C#CCOc1ccc(/C=C/C(=O)Nc2ccccc2C(=O)Nc2ccncc2)cc1OC` [Example 44, (E)-2-(3-(3-methoxy-4-(prop-2-yn-1-yloxy)phenyl)acrylamido)-N-(pyridin-4-yl)benzamide] yielded a half-maximal cytotoxic concentration (CC50) at 48 h in series [1] of 11.1 µM. The compound further registered a half-maximal inhibitory concentration (IC50) in series [2] of 13.2 µM.

`C#CCOc1ccc(/C=C/C(=O)Nc2ccccc2C(=O)NCc2ccncc2)cc1OC` [Example 45, (E)-2-(3-(3-methoxy-4-(prop-2-yn-1-yloxy)phenyl)acrylamido)-N-(pyridin-4-ylmethyl)benzamide]: the CC50 at 48 h in series [1] came out at 307 µM. This compound had an IC50 in series [2] of 12.9 µM.

In series [1], `C#CCOc1ccc(/C=C/C(=O)Nc2ccccc2C(=O)NCCc2ccncc2)cc1OC` [Example 46, (E)-2-(3-(3-methoxy-4-(prop-2-yn-1-yloxy)phenyl)acrylamido)-N-(2-(pyridin-4-yl)ethyl)benzamide] showed a CC50 at 48 h of 186 µM. The IC50 in series [2] turned out to be 46.6 µM.

Consider `C#CCOc1ccc(/C=C/C(=O)Nc2ccccc2C(=O)Nc2cnn(C)c2)cc1OC` [Example 47, (E)-2-(3-(3-methoxy-4-(prop-2-yn-1-yloxy)phenyl)acrylamido)-N-(1-methyl-1H-pyrazol-4-yl)benzamide], for which the CC50 at 48 h in series [1] is over 300 µM. The compound also registered an IC50 in series [2] of 29.1 µM.

In series [1], `C#CCOc1ccc(/C=C/C(=O)Nc2ccccc2C(=O)Nc2ccn(C)n2)cc1OC` [Example 48, (E)-2-(3-(3-methoxy-4-(prop-2-yn-1-yloxy)phenyl)acrylamido)-N-(1-methyl-1H-pyrazol-3-yl)benzamide] gave a CC50 at 48 h of 309 µM. This compound also registered an IC50 in series [2] of 23.9 µM.

`C#CCOc1ccc(/C=C/C(=O)Nc2ccccc2C(=O)NC2CCNCC2)cc1OC` [Example 49, (E)-2-(3-(3-methoxy-4-(prop-2-yn-1-yloxy)phenyl)acrylamido)-N-(piperidin-4-yl)benzamide] gave a CC50 at 48 h in series [1] of 30.6 µM. The same compound registered an IC50 in series [2] of 25.3 µM.

`COc1cc(/C=C/C(=O)Nc2ccccc2C(=O)O)ccc1OCC1CCNCC1` [Example 50, (E)-2-(3-(3-methoxy-4-(piperidin-4-ylmethoxy)phenyl)acrylamido)benzoic acid] gave a cytotoxic concentration (CC50) at 48 h in series [1] of 107 µM. The compound also yielded a 50% inhibitory concentration (IC50) in series [2] of 47.4 µM.

In series [1], `COc1cc(/C=C/C(=O)Nc2ccccc2C(=O)O)ccc1OC1CCN(C)C1` (stereo not shown) [Example 51, (E)-2-(3-(3-methoxy-4-((1-methylpyrrolidin-3-yl)oxy)phenyl)acrylamido)benzoic acid] yielded a CC50 at 48 h of over 300 µM. In series [2], this compound registered an IC50 of 15.5 µM.

`COc1cc(/C=C/C(=O)Nc2ccccc2C(=O)O)ccc1OCc1c(C)noc1C` [Example 52, (E)-2-(3-(4-((3,5-dimethylisoxazol-4-yl)methoxy)-3-methoxyphenyl)acrylamido)benzoic acid] had a 50% cytotoxic concentration (CC50) at 48 h in series [1] of 140 µM. This compound also had a 50% inhibitory concentration (IC50) in series [2] of 11.3 µM.

`COc1cc(/C=C/C(=O)Nc2ccccc2C(=O)O)ccc1OCc1cnn(C)c1` [Example 53, (E)-2-(3-(3-methoxy-4-((1-methyl-1H-pyrazol-4-yl)methoxy)phenyl)acrylamido)benzoic acid] had a cytotoxic concentration (CC50) at 48 h in series [1] of 226 µM. The compound also yielded an IC50 in series [2] of 15 µM.

As to `COc1cc(/C=C/C(=O)Nc2ccccc2C(=O)O)ccc1OCC1COC1` [Example 54, (E)-2-(3-(3-methoxy-4-(oxetan-3-ylmethoxy)phenyl)acrylamido)benzoic acid], the CC50 at 48 h in series [1] was over 300 µM. Also, the IC50 in series [2] worked out at 24 µM.

In turn, `COc1cc(/C=C/C(=O)Nc2ccccc2C(=O)O)ccc1OCc1ccccn1` [Example 55, (E)-2-(3-(3-methoxy-4-(pyridin-2-ylmethoxy)phenyl)acrylamido)benzoic acid] displayed a CC50 at 48 h in series [1] of 86.1 µM. For the same compound, inhibition in series [2] was half-maximal at 44.3 µM (IC50).

In turn, `COc1cc(/C=C/C(=O)Nc2ccccc2C(=O)O)ccc1OCCc1ccccn1` [Example 56, (E)-2-(3-(3-methoxy-4-(2-(pyridin-2-yl)ethoxy)phenyl)acrylamido)benzoic acid] displayed a CC50 at 48 h in series [1] of 150 µM. This compound displayed a half-inhibitory concentration (IC50) in series [2] of 32.2 µM.

`COc1cc(/C=C/C(=O)Nc2ccccc2C(=O)O)ccc1OCCc1cccnc1` [Example 57, (E)-2-(3-(3-methoxy-4-(2-(pyridin-3-yl)ethoxy)phenyl)acrylamido)benzoic acid] yielded a CC50 at 48 h in series [1] of over 76.6 µM. The same compound showed a half-inhibitory concentration (IC50) in series [2] of 9.37 µM.

As for `COc1cc(/C=C/C(=O)Nc2ccccc2C(=O)O)ccc1OCc1ccncc1` [Example 58, (E)-2-(3-(3-methoxy-4-(pyridin-4-ylmethoxy)phenyl)acrylamido)benzoic acid], the midpoint of cytotoxicity in series [1], the CC50 at 48 h, lay at 266 µM. In addition, the IC50 in series [2] was found to be 39.2 µM.

By CC50 is commonly meant the concentration that lowers cell viability or growth by half. The low end stands for greater toxicity to the cells, the high end for lower toxicity to the cells. What is called IC50 is the concentration that inhibits the measured activity by half. Read a high IC50 as weaker potency in that assay.
